The values below come from US7745399B2, “Hsp70 peptide stimulating natural killer (NK) cell activity and uses thereof” (multimmune GmbH, priority 2000, dated 2010).

Read-outs that look alike come from different tables or passages of the source.

In assay [1] the test system is NK cells. The assay is described as follows: NK cell stimulation (3H thymidine uptake assays and 51Cr release assays). Type of assay: cell-based, human. As to the method:
(§1) The proliferative capacity of NK and T cells against different Hsp70 peptides and Hsp70 protein (loc. sit) was determined in a standard ^3H thymidine uptake assay (22). Viable cells (5×10^4 cells/100 μl) were seeded in 96-well flat-bottom microtiter plates (Greiner Nuertingen, Germany) in supplemented RPMI-1640 medium containing 100 IU IL-2 and Hsp70 protein (10 μg/ml) or different amounts of Hsp70 peptides ranging from 0.02 up to 10 μg/ml. As an internal control the proliferation against IL-2 alone was measured in parallel. After a 24 or 48 hour incubation period the cells were pulsed with ^3H thymidine (1 μCi/well) and the total uptake was measured following an 18 hour incubation period at 37° C. in a liquid scintillation counter (Beckmann instruments, Munich, Germany).
The cytolytic activity of NK cells was monitored in a standard ^51Cr assay (23). Dilutions of the effector cells were incubated with ^51Cr-labeled (100 μCi of Na^51CrO4, NEN-Dupont, Boston, Mass.) tumor target cells (3×10^3 cells per well) in duplicates at a final volume of 200 μl RPMI-1640 medium supplemented with 10% FCS at 37° C. for 4 h in 96-well U-bottom plates (Greiner, Nuertingen, Germany). After the incubation period supernatants were collected and the radioactivity was counted in a γ-counter (Packard Instruments). The percentage of specific lysis was determined according to the equation: (experimental release−spontaneous release)/(maximum release−spontaneous release)×100. The percentage spontaneous release was always<15% for each target cell line.

Assay [2] deals with NK cells. As to conditions: Table II, complete proteins; cited from earlier work.
For assay [3], the system named is NK cells. The assay is described as follows: 3H thymidine uptake assay, proliferative response of NK cells. Type of assay: cell-based, human. Conditions: IL-2 100 IU/ml plus peptide 0.02 up to 8 μg/ml. As to the method:
Comparison of the proliferative response of NK cells against Hsp70 peptides. NK cells were stimulated either with IL-2 (100 IU/ml) alone or with IL-2 plus peptides NLL (8-mer, FIG. 1a), TKD (14-mer, FIG. 1b) and GIPP (13 mer, FIG. 1c) at concentrations 0.02, 0.2, 2, 4 and 8 μg/ml. As a positive control NK cells were stimulated with rHsp70 protein at a concentration of 10 μg/ml. The proliferative response of NK cells was measured 72 h after peptide incubation and an 18 h incubation period with ^3H thymidine (1 μCi/ml). In FIG. 1e stimulation with TKD in a more refined scale between 0.1 and 3 μg is shown. […] Values are given as the means of four independent experiments+/−SD.
(§2) Briefly, monocyte depleted peripheral blood lymphocytes (PBL) were isolated from buffy coats of healthy human volunteers (Multhoff et al., 1995a). NK cells were purified by adherence selection following a modified protocol of Vujanovic (1993). T cells remain in the supernatant cell population.
as §1

The next assay relates to T cells. The assay is described as follows: 3H thymidine uptake assay, proliferative response of T cells. Type of assay: cell-based, human. As to conditions: peptides plus low dose IL-2 (100 IU/ml), any tested concentration. On the procedure:
as §2, §1

In the next assay the test system is CX− tumor cells. In words: 51Cr release assay (CML), cytolytic activity of stimulated NK cells against CX-. In kind it is cell-based, human. Conditions: NK cells stimulated 4 days with IL-2 100 IU/ml plus peptide 2 μg/ml. As to the method:
(§3) Cytolytic activity of NK cells stimulated with IL-2 alone or with IL-2 plus the 14-mer peptide TKD or with IL-2 plus the 8-mer peptide NLL. Cytolytic activity of NK cells either stimulated with low dose IL-2 (100 IU/ml) alone or with IL-2 plus the 14-mer peptide TKD (2 μg/ml) or with IL-2 plus the 8-mer peptide NLL (2 μg/ml) for 4 days. As target cells ^51Cr labeled CX+ (FIG. 2a) and CX− (FIG. 2b) tumor cells, that differ with respect to their capability to express Hsp70 on the plasma membrane, were used. The results are expressed as the percentage of specific lysis at varying E:T ratios ranging from 2:1 up to 40:1. […]
(§4) The colon carcinoma sublines CX+ (>90% Hsp70 positive cells) and CX− (<20% Hsp70 positive cells) described in patent application EP-A2-084 300 5 and originally derived from CX2 colon carcinoma cells (Tumorzentrum Heidelberg, TZB 610005, Germany) that differ with respect to their capacity to express Hsp70 on their plasma membrane were cultured at 37° C., 5% CO2 in RPMI-1640 medium (Gibco, Eggenstein, Germany) supplemented with heat-inactivated 10% FCS (Gibco) and 2 mM L-glutamine and antibiotics (penicillin/streptomycin). […] All cell lines were free from mycoplasma contamination as determined by repeated testing using the 6-methylpurin desoxyribosid assay (Boehringer Mannheim, Germany).
(§5) The cytolytic activity of NK cells was monitored in a standard ^51Cr assay (23). […]

The subject of assay [4] is NK cells. In words: FACScan phenotypic characterization of stimulated NK cells. Type of assay: cell-based, human. As to conditions: NK cells stimulated with IL-2 plus peptide 2 μg/ml. As to the method:
Cytolytic activity of NK cells stimulated with IL-2 alone or with IL-2 plus the 14-mer peptide TKD or with IL-2 plus the 8-mer peptide NLL. Cytolytic activity of NK cells either stimulated with low dose IL-2 (100 IU/ml) alone or with IL-2 plus the 14-mer peptide TKD (2 μg/ml) or with IL-2 plus the 8-mer peptide NLL (2 μg/ml) for 4 days. As target cells ^51Cr labeled CX+ (FIG. 2a) and CX− (FIG. 2b) tumor cells, that differ with respect to their capability to express Hsp70 on the plasma membrane, were used. The results are expressed as the percentage of specific lysis at varying E:T ratios ranging from 2:1 up to 40:1. The percentage spontaneous release for each tumor target cell line was less than 20%.
Directly fluorescein-conjugated mAb (CD3FITC/CD16/CD56^PE, Becton Dickinson, Heidelberg, Germany) were added to cell suspensions (0.1×10^6 cells), incubated for 20 min on ice, washed and analysed on a FACScan instrument (Becton Dickinson, Heidelberg, Germany). The percentage of positively stained cells was defined as the number of specifically stained, viable (propidium-iodide negative) cells minus the number of cells stained with an isotype matched control antibody on a FACScan instrument (Becton Dickinson, Heidelberg, Germany).

A further assay concerns CX+ tumor cells. In words: 51Cr release assay (CML), cytolytic activity of stimulated NK cells against CX+. Conditions: NK cells stimulated 4 days with IL-2 100 IU/ml plus peptide 2 μg/ml, compared to IL-2 alone or IL-2 plus NLL. Type of assay: cell-based, human. On the procedure:
as §3, §4, §5

Assay [5] deals with NK cells. Conditions: cited from earlier work.
Where [6] appears, read: Table III, peptides only, 3H thymidine uptake and 51Cr release assays.

As for “A A D N K S L G Q F N L D G (AADNKSLGQFNLDG) [DNAK, peptide, Dnak aa 447-460]”, the NK cell stimulation entry with NK cells [1] (setting [6]) is recorded as “no”.

With “Dank (complete protein): DnaK complete protein”, in the assay on NK cells [2], the NK cell stimulation entry is “no”.

On to “EGERAMTKDNNLLGRFELSG (EGERAMTKDNNLLGRFELSG) [Hsp70 (peptide) 441-463, 20 mer peptide of Hsp70]”, for which the NK cell stimulation result with NK cells [1] (Table II, peptides) is given as “yes”.

Consider “G E R A M T K D N N L L G R F E L S G (GERAMTKDNNLLGRFELSG) [Hsp70 445-463, peptide, Hsp70 aa 445-463]”, for which, in the assay with NK cells [1] (setting [6]), the NK cell stimulation entry is recorded as “yes”.

For the substance “Hsc70 (complete protein): Hsc70 complete protein”, the NK cell stimulation entry in the assay with NK cells [2] is given as “no”.

On to “Hsp70hom (complete protein): testis specific member of the Hsp70 family, complete protein”, for which the NK cell stimulation result in the assay with NK cells [2] is “yes”.

Take NLLGRFEL: the “proliferative capacity of NK cells” value in the assay with NK cells [3] is given as “did not stimulate”. Besides, the T cell growth result with T cells is “none of the three peptides NLL, GIPP or TKD stimulates T cell growth”. In addition, the “lysis of CX− tumor cells” value in the assay with CX− tumor cells is listed as “no significant differences”. Also, the NK cell stimulation entry with NK cells [1] (Table II, peptides) is on record as “no”. Also, in the assay on NK cells [1] (setting [6]), the NK cell stimulation result was “no”. Further, in the assay with NK cells [4], the CD3 positive cells is 8% and the CD16/56 positive cells was 80%.

Turning to “NLLGRFELSGIPP [13-mer C-terminal extended peptide, Hsp70 aa 454-466]”, the “proliferative capacity of NK cells” value in the assay with NK cells [3] is reported as “did not stimulate”. Also, the T cell growth result in the assay on T cells was “none of the three peptides NLL, GIPP or TKD stimulates T cell growth”. The NK cell stimulation entry in the assay with NK cells [1] (Table II, peptides) is given as “no”; in the assay on NK cells [1] (setting [6]) it was “no”.

On to “T K D N N L L G K F E L T G (TKDNNLLGKFELTG) [Hsc70, peptide, Hsc70 aa 450-463]”, for which the NK cell stimulation result in the assay on NK cells [1] (setting [6]) is “no”.

Turning to “T K D N N L L G R F E L (TKDNNLLGRFEL) [TKD12, peptide, Hsp70 aa 450-461]”, the NK cell stimulation entry in the assay with NK cells [1] (setting [6]) is reported as “no”.

On to “T K D N N L L G R F E L S G (TKDNNLLGRFELSG) [14-mer peptide, Hsp70 aa 450-463]”, for which the “proliferative capacity of NK cells” value with NK cells [3] was “comparable immunostimulatory capacity like full length Hsp70 protein”. Moreover, the T cell growth result in the assay with T cells is given as “none of the three peptides NLL, GIPP or TKD stimulates T cell growth”. Besides, in the assay with CX+ tumor cells, the “lytic activity against Hsp70 expressing CX+ tumor cells” value is recorded as “significantly enhanced lytic activity”. In addition, the “lysis of CX− tumor cells” value with CX− tumor cells is listed as “no significant differences”. Further, in the assay with NK cells [1] (Table II, peptides), the NK cell stimulation entry is “yes”. In addition, the NK cell stimulation result with NK cells [1] (setting [6]) is given as “yes”. In the assay on NK cells [4], the CD3 positive cells was 6% and the CD16/56 positive cells amounted to 79%.

For “T K D N N L L G R F E L T G (TKDNNLLGRFELTG) [HOM, peptide, Hsp70hom aa 450-463]”, in the assay with NK cells [1] (setting [6]), the NK cell stimulation result is listed as “low”.

Consider “rHsp70: Human recombinant Hsp70 protein from StressGen (SPP-755)”, for which, in the assay with NK cells [5] (defined previously), the optimal stimulatory dose is 10 µg/mL. Further, the “proliferative response of human NK cells” value with NK cells [5] (low dose IL-2 (100 IU/ml) plus protein, compared to IL-2 only) is “increase the proliferative response”.
